# According to patent publication US20130116291A1, “ASSOCIATION OF XANTHINE OXIDASE INHIBITORS AND STATINS AND USE THEREOF” (Menarini International Operations Luxembourg S.A., priority 2010, published 2013):
# System: Wistar rats subjected to a cholesterol-rich (2%) diet
# Assay: Hypocholesterolemic activity in rats on a cholesterol-rich diet (plasma total cholesterol)
# Format: in vivo, rat
# Details: for Diminution of plasma total cholesterol in rats: cholesterol-rich (2%) diet
# Experimental: Plasma levels of total cholesterol were measured with a standard colorimetric enzymatic method. […] Plasma levels of total cholesterol were determined at one-week intervals. Blood was collected from a tail vein.
Structure (SMILES),Diminution of plasma total cholesterol in rats (1 mg/Kg orally by gavage once per day for 4 weeks),Diminution of plasma total cholesterol in rats (5 mg/Kg orally by gavage once per day for 4 weeks),Diminution of plasma total cholesterol in rats ([…] orally by gavage once per day for 4 weeks),"Effect on cholesterol levels in the 4 weeks of observation (highest dose, 5 mg/kg per day, per os, Wistar rats, cholesterol-rich diet)","Reduction of the cholesterolemia values (in words) (doses of 5 and 10 mg/kg, starting from the first week of treatment)","Maximum reduction of the cholesterolemia values (highest dose (10 mg/kg, as calcium salt, per os daily), peak at 2 weeks, constant in the successive weeks)"
"Cc1nc(-c2ccc(OCC(C)C)c(C#N)c2)sc1C(=O)O [Febuxostat, febuxostat]",No diminution,No diminution,No diminution,did not significantly modify,,
"CC(C)c1c(C(=O)Nc2ccccc2)c(-c2ccccc2)c(-c2ccc(F)cc2)n1CC[C@@H](O)C[C@@H](O)CC(=O)O [Atorvastatin, atorvastatin]",,,,,significant and dose-dependent reduction,80%
